Data on two molecules can be found in paper PMC6434189, “Peperomin E and its orally bioavailable analog induce oxidative stress-mediated apoptosis of acute myeloid leukemia progenitor cells by targeting thioredoxin reductase” (Redox Biology, 2019).

In series [1] the test system is CD34+ NBM cells and hBMSCs. Briefly: CCK-8 cell viability assay on normal CD34+ NBM cells and hBMSCs. The following applies: 48 h; for toxicity on control CD34+ NBM cells and hBMSCs: 6 μM; for effects on NBM and hBMSC cells: 12 μM. Format: cell-based, human. On the procedure: The mononuclear cells were further enriched for CD34 positive cells using the MACS CD34 MicroBead kit following the manufacturer's protocol. Enriched CD34 cell-purity was measured by flow cytometry-based quantification of cells stained using an anti-CD34-FITC antigen. Isolated CD34^+ cells were pre-incubated in the IMDM-based serum-free media for 1 h before the addition of drugs. PepE was dissolved in DMSO to make a 100 mM stock solution and stored in aliquots at – 20 °C. The 100 mM stock solution was diluted with DMSO to 10 mM and then diluted with PBS to 1 mM before treating the cells at the indicated concentrations. DMAPE and Ara-C were diluted in PBS to 1 mM concentration before use.
(§1) Unless otherwise mentioned, 2 × 10^4 cells were seeded at 96-well plates (Corning, New York, USA) in the IMDM-based serum-free media for 1 h. Then, the cells were incubated with different concentrations of PepE and DMAPE at 37 °C in a 5% CO2 incubator for 48 h. At the end of the treatment, 10 μL CCK-8 solution was added to each well and incubated for an additional 2 h at 37 °C, and the absorbance at 450 nm was measured with a microplate reader (Thermo Scientific, Multiskan GO, Finland). Inhibition ratio (%) was calculated as [(absorbance of control − absorbance of the test sample)/absorbance of control] x 100%.
Background: Tetrazolium dyes change colour on reduction, which living cells bring about.

In series [2] the test system is NBM CD34+ (including hBMSCs) cells. Briefly: Release study of DMAPE in vitro, NBM CD34+ cells (UFLC-MS/MS). In kind it is in vitro ADME, human. The note with it: 10 μM DMAPE, 24 h. On the procedure:
1 × 10^5 cells (including sorted CD34^+ KG-1a cells and NBM cells) were seeded at 48-well plates (Corning, New York, USA) in the IMDM-based serum-free media for 1 h. The cells were then incubated with 10 μM DMAPE at 37 °C in the 5% CO2 incubator for 0, 12 or 24 h. The culture supernatant was collected by centrifugation at 3000 rpm for 10 min and evaporated to dryness at 30 °C using a CentriVap vacuum centrifugal concentrator. The resulting residue was reconstituted in 100 μL methanol, vortexed and centrifuged at 12000 rpm for 10 min. A 2 μL aliquot of the supernatant was injected for UFLC-MS/MS analysis (UFLC-MS/MS analysis method same as the pharmacokinetic study of DMAPE, see Additional method in Supplementary Materials).

In another series the test system is KG-1a CD34+ cells. Briefly: Annexin V-FITC/PI apoptosis assay. In kind it is cell-based, human. The note with it: 6 μM; for cell apoptosis (early + late): 12 h; for apoptotic population (early + late): 24 h. An excerpt:
The cells were harvested and washed twice with PBS. The apoptotic cells, necrotic cells, and live cells were identified by PI and Annexin V-FITC staining assay following the manufacturer's instructions. Data were obtained and analyzed using a BD Accuri™ C6 flow cytometer (BD Biosciences, San Jose, CA, USA) with CellQuest software (BD Biosciences).

The target of series [3] is T1, TrxR1 in KG-1a CD34+ cells (Homo sapiens, UniProt Q16881).
T1 construct: image TrxR activity in intact isolated KG-1a CD34^+ cells; endogenous in cells; host or cells: KG-1a CD34+ cells
T1 sequence (Q16881 1-499 isoform Q16881-5): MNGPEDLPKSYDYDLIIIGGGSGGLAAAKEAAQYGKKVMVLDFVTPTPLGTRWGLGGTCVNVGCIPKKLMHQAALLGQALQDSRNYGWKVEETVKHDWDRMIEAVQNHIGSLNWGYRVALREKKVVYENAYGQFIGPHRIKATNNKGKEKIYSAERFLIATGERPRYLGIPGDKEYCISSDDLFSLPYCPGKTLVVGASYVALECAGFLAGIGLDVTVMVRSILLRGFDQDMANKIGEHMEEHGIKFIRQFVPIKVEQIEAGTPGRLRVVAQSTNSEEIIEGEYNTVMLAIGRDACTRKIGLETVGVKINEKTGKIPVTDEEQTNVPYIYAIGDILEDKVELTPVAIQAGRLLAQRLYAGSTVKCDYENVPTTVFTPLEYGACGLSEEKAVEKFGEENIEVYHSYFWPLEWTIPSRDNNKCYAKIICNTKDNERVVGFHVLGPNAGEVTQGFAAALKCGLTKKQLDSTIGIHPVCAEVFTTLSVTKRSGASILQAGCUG
Briefly: Imaging TrxR1 activity in cells with TR-green. The following applies: 2 and 6 μM, dose-dependent. Format: cell-based. On the procedure: The specific fluorescence probe of TrxR – TR-green was employed to image TrxR activity in intact isolated KG-1a CD34^+ cells using previously published methods. Briefly, KG-1a CD34^+ cells (5 × 10^5) were incubated with 2 μM and 6 μM PepE or DMAPE (Previously reported TrxR1 inhibitor Parthenolide was used as the positive control, 0.1% DMSO was used as the negative control) in 6-well plates for 12 h, then 10 μM TR-green was added to each plate and incubated at 37 °C for 3 h. Fluorescence and brightfield images were captured using an inverted fluorescence microscope IX-73 (Olympus) with Metamorph software (Molecular Devices).

For series [4], the system named is TrxR1 KD cells (KG-1a CD34+). Briefly: CCK-8 viability in TrxR1 knockdown KG-1a CD34+ cells. In kind it is cell-based, human. The following applies: 48 h. On the procedure: as §1
For TrxR1 knockdown experiment, KG-1a CD34^+ cells were seeded in a six-well plate at 2.5 × 10^5/well in antibiotic-free IMDM medium for 24 h; then cells were washed once with 2 ml of shRNA transfection medium (Santa Cruz Biotech, sc-108062) and transfected with either TrxR1 shRNA plasmid (Santa Cruz Biotech, sc-36750-SH) or Control shRNA plasmid (negative control, Santa Cruz Biotech, sc-108060) according to the manufacturer's instructions. Briefly, for each transfection, 0.1 ml of shRNA (TrxR1 or control) duplex solution (containing 1 μg of shRNA plasmids) and 0.1 ml of transfection reagent (Santa Cruz Biotech, sc-108061) were gently mixed and incubated at room temperature for 30 min. […] The knockdown efficiencies were evaluated by western blot and RT-qPCR analyses.

Details of series [5]: method as in earlier work. The note with it: formulated with phosphate acid; cited from earlier work.

Regarding `COc1cc(C(c2cc(OC)c3c(c2)OCO3)[C@@H]2COC(=O)[C@H]2CN(C)CCO)cc2c1OCO2` [DMAPE, (2S,3S)-6-Methyl (hydroxyethyl) amino-2,6-dihydropeperomin E], in series [1], the “toxicity on control CD34+ NBM cells and hBMSCs” value was “reduced toxicities”; the “effects on NBM and hBMSC cells” value is recorded as “relatively safe”. The “DMAPE remained in the culture media” value in series [2] is recorded as “about half”. For the same molecule, in the series on KG-1a CD34+ cells, the “cell apoptosis (early + late)” value is given as ~55% and the “apoptotic population (early + late)” value is listed as ~90%. For the same molecule, the “TR-green fluorescence intensities (cellular TrxR1 activity)” value in series [3] is reported as “significant decrease”. Moreover, the “potency toward TrxR1 KD cells compared to CTRL KD cells” value in series [4] is “elevated potency”. Besides, the “increased solubility in water compared to PepE” value in series [5] is reported as “more than 1000 fold”.

`C=C1C(=O)OC[C@H]1C(c1cc(OC)c2c(c1)OCO2)c1cc(OC)c2c(c1)OCO2` [PepE, Peperomin E]: in series [1], the “toxicity on control CD34+ NBM cells and hBMSCs” value is on record as “reduced toxicities”; the “effects on NBM and hBMSC cells” value is recorded as “modest effects”. Moreover, in the series with KG-1a CD34+ cells, the “cell apoptosis (early + late)” value was ~65% and the “apoptotic population (early + late)” value is ~85%. For the same molecule, the “TR-green fluorescence intensities (cellular TrxR1 activity)” value in series [3] is listed as “significant decrease”. Moreover, the “potency toward TrxR1 KD cells compared to CTRL KD cells” value in series [4] is reported as “elevated potency”.
